Experimental data from ChEMBL document CHEMBL4665642, “Anticancer profile of newly synthesized BRAF inhibitors possess 5-(pyrimidin-4-yl)imidazo[2,1-b]thiazole scaffold” (Bioorg Med Chem, 2019).

Columns and labels:
Format in all cases: functional
Details in all cases: read-out: Activity
BT-549 = test: Cytotoxicity against human BT-549 cells assessed as cell viability at 10 uM incubated for 48 hrs by sulforhodamine B assay relative to control
PC-3 = test: Cytotoxicity against human PC-3 cells assessed as cell viability at 10 uM incubated for 48 hrs by sulforhodamine B assay relative to control
UO-31 = test: Cytotoxicity against human UO-31 cells assessed as cell viability at 10 uM incubated for 48 hrs by sulforhodamine B assay relative to control
TK-10 = test: Cytotoxicity against human TK-10 cells assessed as cell viability at 10 uM incubated for 48 hrs by sulforhodamine B assay relative to control
SN12C = test: Cytotoxicity against human SN12C cells assessed as cell viability at 10 uM incubated for 48 hrs by sulforhodamine B assay relative to control
CAKI-1 = test: Cytotoxicity against human CAKI-1 cells assessed as cell viability at 10 uM incubated for 48 hrs by sulforhodamine B assay relative to control
ACHN = test: Cytotoxicity against human ACHN cells assessed as cell viability at 10 uM incubated for 48 hrs by sulforhodamine B assay relative to control
786-0 = test: Cytotoxicity against human 786-0 cells assessed as cell viability at 10 uM incubated for 48 hrs by sulforhodamine B assay relative to control
SK-OV-3 = test: Cytotoxicity against human SK-OV-3 cells assessed as cell viability at 10 uM incubated for 48 hrs by sulforhodamine B assay relative to control
NCI/ADR-RES = test: Cytotoxicity against human NCI/ADR-RES cells assessed as cell viability at 10 uM incubated for 48 hrs by sulforhodamine B assay relative to control
OVCAR-8 = test: Cytotoxicity against human OVCAR-8 cells assessed as cell viability at 10 uM incubated for 48 hrs by sulforhodamine B assay relative to control
OVCAR-5 = test: Cytotoxicity against human OVCAR-5 cells assessed as cell viability at 10 uM incubated for 48 hrs by sulforhodamine B assay relative to control
OVCAR-4 = test: Cytotoxicity against human OVCAR-4 cells assessed as cell viability at 10 uM incubated for 48 hrs by sulforhodamine B assay relative to control
OVCAR-3 = test: Cytotoxicity against human OVCAR-3 cells assessed as cell viability at 10 uM incubated for 48 hrs by sulforhodamine B assay relative to control
IGROV-1 = test: Cytotoxicity against human IGROV-1 cells assessed as cell viability at 10 uM incubated for 48 hrs by sulforhodamine B assay relative to control
UACC-62 = test: Cytotoxicity against human UACC-62 cells assessed as cell viability at 10 uM incubated for 48 hrs by sulforhodamine B assay relative to control
UACC-257 = test: Cytotoxicity against human UACC-257 cells assessed as cell viability at 10 uM incubated for 48 hrs by sulforhodamine B assay relative to control
SK-MEL-5 = test: Cytotoxicity against human SK-MEL-5 cells assessed as cell viability at 10 uM incubated for 48 hrs by sulforhodamine B assay relative to control
MDA-MB-435 = test: Cytotoxicity against human MDA-MB-435 cells assessed as cell viability at 10 uM incubated for 48 hrs by sulforhodamine B assay relative to control
M14 = test: Cytotoxicity against human M14 cells assessed as cell viability at 10 uM incubated for 48 hrs by sulforhodamine B assay relative to control
Malme-3M = test: Cytotoxicity against human Malme-3M cells assessed as cell viability at 10 uM incubated for 48 hrs by sulforhodamine B assay relative to control
CCRF-CEM = test: Cytotoxicity against human CCRF-CEM cells assessed as cell viability at 10 uM incubated for 48 hrs by sulforhodamine B assay relative to control
K562 = test: Cytotoxicity against human K562 cells assessed as cell viability at 10 uM incubated for 48 hrs by sulforhodamine B assay relative to control
MOLT-4 = test: Cytotoxicity against human MOLT-4 cells assessed as cell viability at 10 uM incubated for 48 hrs by sulforhodamine B assay relative to control
RPMI-8226 = test: Cytotoxicity against human RPMI-8226 cells assessed as cell viability at 10 uM incubated for 48 hrs by sulforhodamine B assay relative to control
EKVX = test: Cytotoxicity against human EKVX cells assessed as cell viability at 10 uM incubated for 48 hrs by sulforhodamine B assay relative to control
HOP-62 = test: Cytotoxicity against human HOP-62 cells assessed as cell viability at 10 uM incubated for 48 hrs by sulforhodamine B assay relative to control
HOP-92 = test: Cytotoxicity against human HOP-92 cells assessed as cell viability at 10 uM incubated for 48 hrs by sulforhodamine B assay relative to control
NCI-H23 = test: Cytotoxicity against human NCI-H23 cells assessed as cell viability at 10 uM incubated for 48 hrs by sulforhodamine B assay relative to control
NCI-H322M = test: Cytotoxicity against human NCI-H322M cells assessed as cell viability at 10 uM incubated for 48 hrs by sulforhodamine B assay relative to control
NCI-H522 = test: Cytotoxicity against human NCI-H522 cells assessed as cell viability at 10 uM incubated for 48 hrs by sulforhodamine B assay relative to control
COLO 205 = test: Cytotoxicity against human COLO 205 cells assessed as cell viability at 10 uM incubated for 48 hrs by sulforhodamine B assay relative to control
HCC 2998 = test: Cytotoxicity against human HCC 2998 cells assessed as cell viability at 10 uM incubated for 48 hrs by sulforhodamine B assay relative to control
HCT-116 = test: Cytotoxicity against human HCT-116 cells assessed as cell viability at 10 uM incubated for 48 hrs by sulforhodamine B assay relative to control
KM12 = test: Cytotoxicity against human KM12 cells assessed as cell viability at 10 uM incubated for 48 hrs by sulforhodamine B assay relative to control
SW-620 = test: Cytotoxicity against human SW-620 cells assessed as cell viability at 10 uM incubated for 48 hrs by sulforhodamine B assay relative to control
SF-268 = test: Cytotoxicity against human SF-268 cells assessed as cell viability at 10 uM incubated for 48 hrs by sulforhodamine B assay relative to control
SF-295 = test: Cytotoxicity against human SF-295 cells assessed as cell viability at 10 uM incubated for 48 hrs by sulforhodamine B assay relative to control
SNB-19 = test: Cytotoxicity against human SNB-19 cells assessed as cell viability at 10 uM incubated for 48 hrs by sulforhodamine B assay relative to control
SNB-75 = test: Cytotoxicity against human SNB-75 cells assessed as cell viability at 10 uM incubated for 48 hrs by sulforhodamine B assay relative to control
U-251 = test: Cytotoxicity against human U-251 cells assessed as cell viability at 10 uM incubated for 48 hrs by sulforhodamine B assay relative to control

O=S(=O)(NCCCNc1nccc(-c2c(-c3cccc(F)c3)nc3sccn23)n1)c1ccccc1
viability at 10 µM (BT-549): 71.1%
viability at 10 µM (PC-3): 53.5%
viability at 10 µM (UO-31): 39%
viability at 10 µM (TK-10): 92.8%
viability at 10 µM (SN12C): 58.2%
viability at 10 µM (CAKI-1): 56.4%
viability at 10 µM (ACHN): 54.1%
viability at 10 µM (786-0): 74%
viability at 10 µM (SK-OV-3): 71.5%
viability at 10 µM (NCI/ADR-RES): 53.4%
viability at 10 µM (OVCAR-8): 43%
viability at 10 µM (OVCAR-5): 121%
viability at 10 µM (OVCAR-4): 54.8%
viability at 10 µM (OVCAR-3): 74.9%
viability at 10 µM (IGROV-1): 35.2%
viability at 10 µM (UACC-62): 26.8%
viability at 10 µM (UACC-257): 86.7%
viability at 10 µM (SK-MEL-5): 30.7%
viability at 10 µM (MDA-MB-435): 41.7%
viability at 10 µM (M14): 50.5%
viability at 10 µM (Malme-3M): 82.1%
viability at 10 µM (CCRF-CEM): 44.1%
viability at 10 µM (K562): 34.3%
viability at 10 µM (MOLT-4): 37.1%
viability at 10 µM (RPMI-8226): 48%
viability at 10 µM (EKVX): 65.4%
viability at 10 µM (HOP-62): 98.9%
viability at 10 µM (HOP-92): 80.2%
viability at 10 µM (NCI-H23): 76.9%
viability at 10 µM (NCI-H322M): 89.3%
viability at 10 µM (NCI-H522): 47%
viability at 10 µM (COLO 205): 29%
viability at 10 µM (HCC 2998): 120%
viability at 10 µM (HCT-116): 56.7%
viability at 10 µM (KM12): 62.1%
viability at 10 µM (SW-620): 91.3%
viability at 10 µM (SF-268): 71.5%
viability at 10 µM (SF-295): 79.9%
viability at 10 µM (SNB-19): 93.5%
viability at 10 µM (SNB-75): 102%
viability at 10 µM (U-251): 82.3%

O=C(NCCNc1nccc(-c2c(-c3cccc(F)c3)nc3sccn23)n1)c1ccccc1
viability at 10 µM (BT-549): 71.2%
viability at 10 µM (PC-3): 62.9%
viability at 10 µM (UO-31): 22.8%
viability at 10 µM (TK-10): 73%
viability at 10 µM (SN12C): 48.2%
viability at 10 µM (CAKI-1): 36.4%
viability at 10 µM (ACHN): 29.1%
viability at 10 µM (786-0): 45.4%
viability at 10 µM (SK-OV-3): 75.1%
viability at 10 µM (NCI/ADR-RES): 64.9%
viability at 10 µM (OVCAR-8): 46.8%
viability at 10 µM (OVCAR-5): 79.9%
viability at 10 µM (OVCAR-4): 55.4%
viability at 10 µM (OVCAR-3): 67.8%
viability at 10 µM (IGROV-1): 16.5%
viability at 10 µM (UACC-62): 11.2%
viability at 10 µM (UACC-257): 63.1%
viability at 10 µM (SK-MEL-5): 25.6%
viability at 10 µM (MDA-MB-435): 27%
viability at 10 µM (M14): 28.4%
viability at 10 µM (Malme-3M): 23.7%
viability at 10 µM (CCRF-CEM): 40.9%
viability at 10 µM (K562): 44%
viability at 10 µM (MOLT-4): 46.5%
viability at 10 µM (RPMI-8226): 45.7%
viability at 10 µM (EKVX): 54.4%
viability at 10 µM (HOP-62): 77.5%
viability at 10 µM (HOP-92): 82.2%
viability at 10 µM (NCI-H23): 64.9%
viability at 10 µM (NCI-H322M): 64.8%
viability at 10 µM (NCI-H522): 57.9%
viability at 10 µM (COLO 205): 10.4%
viability at 10 µM (HCC 2998): 73.8%
viability at 10 µM (HCT-116): 25.6%
viability at 10 µM (KM12): 56.6%
viability at 10 µM (SW-620): 52.3%
viability at 10 µM (SF-268): 58.8%
viability at 10 µM (SF-295): 71.4%
viability at 10 µM (SNB-19): 63.5%
viability at 10 µM (SNB-75): 54.6%
viability at 10 µM (U-251): 59.4%
